Experiment: refractive index (Na D-line) (dimensionless); xn = mol fraction of the nth substance listed
Conditions: 100 kPa, Liquid, Standard Abbe refractometry

CN1CCC[C@H]1c1cccnc1 [(-)-3-(N-methylpyrrolidino)pyridine] + CC(O)CO
refractive index
Conditions	x1 = 0.1	x1 = 0.2009	x1 = 0.3	x1 = 0.4016	x1 = 0.5	x1 = 0.6005	x1 = 0.7	x1 = 0.7983	x1 = 0.9	x1 = 1
293.15 K	1.45151	1.46746	1.48003	1.4907	1.49923	1.50631	1.51219	1.51744	1.52199	1.52665
298.15 K	1.44969	1.4656	1.47804	1.48864	1.49711	1.50413	1.50997	1.5152	1.51971	1.52439
303.15 K	1.448	1.46377	1.47612	1.48662	1.49496	1.50195	1.50774	1.51296	1.51749	1.52214
308.15 K	1.44622	1.46193	1.47424	1.48462	1.49301	1.49987	1.50568	1.51076	1.5153	1.51988
313.15 K	1.44441	1.46029	1.4723	1.48255	1.49092	1.49774	1.50345	1.5087	1.51312	1.5179
318.15 K	1.44265	1.45843	1.47031	1.48043	1.48871	1.49555	1.50118	1.50651	1.511	1.51592
323.15 K	1.44081	1.45653	1.46833	1.47837	1.48665	1.49341	1.49904	1.50435	1.50881	1.51373

CN1CCC[C@H]1c1cccnc1 [(-)-3-(N-methylpyrrolidino)pyridine] + CCC(C)O
refractive index
Conditions	x1 = 0.1	x1 = 0.2036	x1 = 0.3	x1 = 0.4	x1 = 0.5	x1 = 0.6	x1 = 0.6956	x1 = 0.8	x1 = 0.9	x1 = 1
293.15 K	1.41889	1.43839	1.4542	1.46843	1.48084	1.49173	1.50103	1.51029	1.51858	1.52665
298.15 K	1.41668	1.43618	1.45199	1.46621	1.47864	1.48952	1.4988	1.50803	1.51632	1.52439
303.15 K	1.41438	1.43393	1.44972	1.46397	1.47644	1.48735	1.49664	1.50585	1.5141	1.52214
308.15 K	1.41211	1.43166	1.44747	1.46172	1.4742	1.48511	1.49439	1.50359	1.51184	1.51988
313.15 K	1.40979	1.42936	1.44519	1.45945	1.47192	1.48284	1.49217	1.50145	1.50978	1.5179
318.15 K	1.40753	1.4271	1.44297	1.45725	1.46971	1.48065	1.49001	1.49933	1.50772	1.51592
323.15 K	1.40509	1.42476	1.44065	1.45496	1.46747	1.47843	1.48779	1.49711	1.5055	1.51373

CN1CCC[C@H]1c1cccnc1 [(-)-3-(N-methylpyrrolidino)pyridine] + CCCCO
refractive index
Conditions	x1 = 0.1	x1 = 0.196	x1 = 0.3	x1 = 0.3931	x1 = 0.5	x1 = 0.593	x1 = 0.7	x1 = 0.7931	x1 = 0.9	x1 = 1
293.15 K	1.42126	1.44053	1.45673	1.46978	1.48302	1.49254	1.50289	1.51169	1.51909	1.52665
298.15 K	1.41913	1.43825	1.45448	1.46759	1.48076	1.49031	1.50065	1.50945	1.51685	1.52439
303.15 K	1.41697	1.43598	1.45225	1.46538	1.47856	1.48808	1.49847	1.50721	1.51463	1.52214
308.15 K	1.41481	1.43367	1.45	1.46318	1.4763	1.48583	1.49623	1.50495	1.51238	1.51988
313.15 K	1.4127	1.43148	1.44779	1.46096	1.47404	1.48355	1.49404	1.5028	1.51035	1.5179
318.15 K	1.41058	1.42931	1.44562	1.45876	1.47184	1.48131	1.49183	1.50058	1.50823	1.51592
323.15 K	1.40842	1.42705	1.44337	1.45655	1.46958	1.47906	1.48961	1.49837	1.50604	1.51373

CN1CCC[C@H]1c1cccnc1 [(-)-3-(N-methylpyrrolidino)pyridine] + OCCCO
refractive index
Conditions	x1 = 0.1	x1 = 0.1999	x1 = 0.3	x1 = 0.3994	x1 = 0.5	x1 = 0.6004	x1 = 0.7	x1 = 0.8	x1 = 0.9	x1 = 1
293.15 K	1.45763	1.47282	1.48522	1.49551	1.50314	1.50913	1.51461	1.51947	1.5228	1.52665
298.15 K	1.4561	1.47118	1.4835	1.49364	1.50131	1.50702	1.51264	1.51729	1.52064	1.52439
303.15 K	1.45463	1.46959	1.48179	1.49178	1.49939	1.5052	1.51056	1.51508	1.51845	1.52214
308.15 K	1.45312	1.46793	1.48	1.48991	1.49739	1.50305	1.50843	1.51294	1.51623	1.51988
313.15 K	1.45171	1.46637	1.47831	1.48799	1.49571	1.50113	1.50703	1.51089	1.51476	1.5179
318.15 K	1.45006	1.46458	1.4764	1.48604	1.49341	1.49907	1.50429	1.50872	1.51216	1.51592
323.15 K	1.44849	1.46287	1.4746	1.48415	1.49147	1.49703	1.50221	1.5066	1.50996	1.51373

— the NIST ThermoML archive (doi:10.1016/j.jct.2016.07.005)
